In ChEMBL document CHEMBL1681642, “Synthesis and biological activity of novel MIF antagonists” (Bioorg Med Chem Lett, 2011):

Columns and labels:
PBMC [1] = test: Antiinflammatory activity in human PBMC assessed as inhibition of MIF-induced TNFalpha production at 100 uM after 21 hrs by ELISA; type: functional
[2] = target: T1, Macrophage migration inhibitory factor (Homo sapiens) (UniProt P14174); test: Inhibition of human purified MIF tautomerase activity at 10 uM after 30 mins
T1 sequence (whole entry): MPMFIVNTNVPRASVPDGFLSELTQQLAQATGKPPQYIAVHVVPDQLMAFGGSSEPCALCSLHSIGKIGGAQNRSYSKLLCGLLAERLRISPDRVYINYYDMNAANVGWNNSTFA

[3] = target: T1, Macrophage migration inhibitory factor (Homo sapiens); test: Inhibition of human purified MIF tautomerase activity at 100 uM after 30 mins
PBMC [4] = test: Antiinflammatory activity in human PBMC assessed as inhibition of MIF-induced IL-6 production at 30 uM after 21 hrs by ELISA; type: functional
[5] = Cytotoxicity against human PBMC assessed as cell viability measured during MIF secretion assay at 100 uM after 21 hrs by MTS assay; type: cell-based; details: PBMC (peripheral blood mononuclear cells)
PBMC [6] = test: Antiinflammatory activity in human PBMC assessed as inhibition of MIF-induced IL-6 production at 100 uM after 21 hrs by ELISA; type: functional
[7] = target: T1, Macrophage migration inhibitory factor (Homo sapiens); test: Inhibition of MIF in human PBMC assessed as MIF secretion at 100 uM after 5 hrs by ELISA
PBMC [8] = test: Antiinflammatory activity in human PBMC assessed as inhibition of MIF-induced IL1-beta production at 100 uM after 21 hrs by ELISA; type: functional
[9] = Cytotoxicity against human PBMC assessed as cell viability measured during cytokines production assay at 100 uM after 21 hrs by MTS assay; type: cell-based; details: PBMC (peripheral blood mononuclear cells)
[10] = target: T1, Macrophage migration inhibitory factor (Homo sapiens); test: Inhibition of MIF in human PBMC assessed as MIF secretion at 10 uM after 5 hrs by ELISA

inhibition [2] [%] | inhibition [3] [%] | inhibition [7] [%] | inhibition [10] [%] | Compound | inhibition at 100 µM (PBMC [1]) [%] | inhibition at 30 µM (PBMC [4]) [%] | cytotoxicity at 21 h, 100 µM [5] [%] | inhibition at 100 µM (PBMC [6]) [%] | inhibition at 100 µM (PBMC [8]) [%] | cytotoxicity at 21 h, 100 µM [9] [%]
28 | 100 | 22 | 1 | FC(F)(F)c1cccc(-n2cc(C3=NOC(C4CCCCC4)C3)c3ccccc32)c1 (stereo not given) | 27 | 4 | 15 | 19 | 43 | 7
15 | 41 | 60 | 31 | FC(F)(F)c1ccc(C2CC(c3ccoc3)=NO2)cc1 (stereo not given) | 76 | 23 | 9 | 50 | 67 | 17
26 | 100 | 95 | 68 | c1ccc2c(c1)ccn2CC1CC(c2ccoc2)=NO1 (stereo not given) | 30 | 0 | 0 | 6 | 19 | 6
23 | 54 | 35 | 13 | c1cc(C2=NOC(C3CCCCC3)C2)co1 (stereo not given) | 0 | 0 | 6 | 0 | 15 | 1
22 | 22 | 0 | 0 | COC(=O)C1(C)CC(c2ccoc2)=NO1 (stereo not given) | 30 | 0 | 4 | 11 | 39 | 1
0 | 41 | 51 | 0 | Fc1ccc(C2CC(c3ccoc3)=NO2)cc1 (stereo not given) | 0 | 0 | 0 | 15 | 47 | 4
18 | 29 | 21 | 0 | CC1(C(=O)O)CC(c2ccoc2)=NO1 (stereo not given) | 32 | 14 | 2 | 7 | 15 | 10
8 | 47 | 0 | 0 | O=C1c2ccccc2C(=O)N1C1CC(c2cn(-c3cccc(C(F)(F)F)c3)c3ccccc23)=NO1 (stereo not given) | 63 | 6 | 0 | 24 | 43 | 11
55 | 97 | 1 | 0 | COc1ccc(C2CC(c3cn(-c4cccc(C(F)(F)F)c4)c4ccccc34)=NO2)cc1 (stereo not given) | 23 | 5 | 0 | 13 | 37 | 3
3 | 23 | 58 | 39 | OCCC1CC(c2ccoc2)=NO1 (stereo not given) | 11 | 18 | 0 | 7 | 0 | 10
6 | 71 | 2 | 11 | FC(F)(F)c1cccc(-n2cc(C3=NOC(c4ccccc4)C3)c3ccccc32)c1 (stereo not given) | 0 | 18 | 0 | 9 | 12 | 8
15 | 100 | 5 | 0 | CC(C)(C)C(=O)OC1CC(c2cn(-c3cccc(C(F)(F)F)c3)c3ccccc23)=NO1 (stereo not given) | 0 | 10 | 0 | 12 | 15 | 15
13 | 66 | 0 | 4 | COC(=O)C1(C)CC(c2cn(-c3cccc(C(F)(F)F)c3)c3ccccc23)=NO1 (stereo not given) | 81 | 25 | 5 | 65 | 89 | 2
6 | 76 | 10 | 0 | COC(=O)CC1(C(=O)OC)CC(c2cn(-c3cccc(C(F)(F)F)c3)c3ccccc23)=NO1 (stereo not given) | 0 | 0 | 0 | 4 | 23 | 2
17 | 59 | 68 | 37 | c1ccc(C2CC(c3ccoc3)=NO2)cc1 (stereo not given) | 50 | 5 | 0 | 14 | 31 | 16
10 | 100 | 0 | 0 | FC(F)(F)c1cccc(-n2cc(C3=NOC(CN4CCOCC4)C3)c3ccccc32)c1 (stereo not given) | 42 | 22 | 65 | 36 | 51 | 10
0 | 0 | 83 | 49 | O=C1c2ccccc2C(=O)N1C1CC(c2ccoc2)=NO1 (stereo not given) | 26 | 9 | 0 | 13 | 12 | 12
8 | 59 | 87 | 35 | COC(=O)CC1CC(c2ccc(O)cc2)=NO1 (stereo not given) | 35 | 11 | 8 | 12 | 34 | 10
23 | 47 | 0 | 0 | COC(=O)CC1(C(=O)OC)CC(c2ccoc2)=NO1 (stereo not given) | 4 | 53 | 7 | 60 | 57 | 8
1 | 10 | 0 | 0 | O=C1CCCN1C1CC(c2cn(-c3cccc(C(F)(F)F)c3)c3ccccc23)=NO1 (stereo not given) | 68 | 25 | 15 | 52 | 68 | 16
20 | 56 | 78 | 44 | c1cc(C2=NOC(CN3CCOCC3)C2)co1 (stereo not given) | 0 | 39 | 0 | 49 | 32 | 6
2 | 17 | 14 | 41 | CC1(C(=O)O)CC(c2cn(-c3cccc(C(F)(F)F)c3)c3ccccc23)=NO1 (stereo not given) | 39 | 18 | 2 | 45 | 54 | 14
18 | 100 | 8 | 0 | FC(F)(F)c1cccc(-n2cc(C3=NOC(Cn4ccc5ccccc54)C3)c3ccccc32)c1 (stereo not given) | 30 | 15 | 0 | 17 | 44 | 16
13 | 30 | 86 | 40 | CC(C)(C)C(=O)OC1CC(c2ccoc2)=NO1 (stereo not given) | 0 | 3 | 0 | 1 | 6 | 8
0 | 91 | 0 | 0 | OCCC1CC(c2cn(-c3cccc(C(F)(F)F)c3)c3ccccc23)=NO1 (stereo not given) | 88 | 60 | 0 | 84 | 88 | 9
